Results on one compound are retold here after publication PMC9848421, “Increased brain uptake of pterostilbene loaded folate modified micellar delivery system” (Drug Delivery, 2022).

A short description of data set [1]: In vitro drug release by dialysis method. The settings on record: PBS pH 7.4 containing 0.3% Tween 80. The class given is physicochemical. The protocol: With free Pt acetone solution as control, in vitro release of Pt from F-Pt/M formulation was studied by the dialysis method (Khan et al., [2020]; Rubab et al., [2021]; Yang et al., [2021]). Briefly, 1 mL of samples, equivalent to 0.8 mg drug, were filled into dialysis bags (molecular weight cutoff: 3500 Da) and dialyzed against 1,000 mL of phosphate buffer solution of pH values 7.4 (containing 0.3% Tween 80) to mimic drug release in normal tissues/blood. At the desired time intervals, 1 mL of release medium was withdrawn and replaced with 1 mL of fresh medium. The amount of released Pt was measured by spectrophotometer (Thermo Scientific Inc., Finland) with excitation wavelength at 330 nm and emission wavelength at 374 nm.
In order to understand the kinetic model of Pt release from F-Pt/M, zero-order, first-order and Higuchi models were fitted, and the highest adjusted R^2 value was used as the criterion for model selection.

The subject of data set [2] is A172 cells. Description: In vitro cytotoxicity assay (CCK-8). It counts as cell-based. The settings on record: Homo sapiens, A 172, 48 h incubation. On the procedure:
Human glioblastoma A172 cells (Nanjing KeyGen Biotech Co., Ltd., Nanjing, China) which overexpress folate receptor (Weitman et al., [1992]) were used. Cells were routinely cultured in DMEM medium (Invitrogen, Grand Island, NY, USA) supplemented with 10% fetal bovine serum (Gibco Life Science, Grand Island, NY, USA) and 1% streptomycin/penicillin in a humidified atmosphere of 5% CO2 at 37 °C. Cell passages were carried out according to the manufacturer’s instructions.
To evaluate the inhibitory effects of Pt in various formulations on A172 cells, cytotoxicity assay was carried out with CCK-8 kits. Cells were seeded into 96-well plates at a density of 5,000 cells per well, followed by incubation for 24 h. Cells were treated with free Pt solution (free Pt), Pt loaded micelles (Pt/M), folate modified Pt loaded micelles (F-Pt/M) and blank micelles (BM) at equivalent drug concentrations ranging from 5 μM to 100 μM and further incubated for 48 h. […] After 2 h of incubation at 37 °C, the absorbance intensity was measured by a microplate reader (Varioskan LUX; Thermo Scientific Inc., Vantaa, Finland) at 450 nm. Cell viability was calculated by the ratio between the fluorescence absorbance of the cells treated with various Pt formulations (or blank micelles) and that of the cells incubated with the culture medium only. The IC50 values were calculated by using SPSS 22.0 (IBM Corp., Armonk, NY).

In data set [3] the test system is red blood cells (RBCs). The experiment in a line: In vitro hemolysis assay. The class given is cell-based, SD rats. To be noted: 37 °C, 1 h. The protocol: The hemocompatibility of F-Pt/M was investigated by hemolysis assay (Valenzuela-Oses et al., [2017]). Fresh SD rats blood was diluted by physiological saline, and red blood cells (RBCs) were collected by centrifugation at 1,200 rpm for 5 min. Following carefully washing and diluting, RBC suspension in normal saline (v/v, 2%) was prepared for hemolysis study. Pt loaded F-Pt/M and free Pt at different drug concentrations were added and mixed by vortex. Then, the samples were incubated at 37 °C for 1 h and after that were centrifuged at 3,000 rpm for 10 min. The supernatant was collected and spectrophotometrically measured on a microplate plate reader (Varioskan LUX, Thermo Scientific Inc., Vantaa, Finland) at 540 nm. Double distilled water and normal saline were employed as positive and negative control, respectively. The hemolysis ratio (HR) of RBCs was calculated using the following equation: (4) HR (%) = (As– A0)/(A100– A0) × 100
Where, As is the absorbance of sample, A0 is the absorbance of negative control and A100 is the absorbance of positive control.

Data set [4] is described as follows: Brain targeting and brain distribution study in rats. The settings on record: single i.v. 3 mg/kg; for Cmax / Tmax / half-life: male, SD, rat, iv. It counts as in vivo, SD rats. The protocol:
Male SD rats weighing 200–250 g (Experimental Animal Center of Dalian Medical University, China) were maintained in standard conditions on a 14 h light/10 h dark cycle provided with food and water ad libitum prior to experimental procedures. All animal experimental protocols were conducted with an approval by the Institutional Animal Care and Use Committee at Dalian Medical University, Dalian, China (Ethics Committee approval number: SCXK 2018-0003) as well as in accordance with the recommendations and policies of the National Institutes of Health (NIH) guide for the care and use of laboratory animals (NIH Publications No. 8023, revised 1978).
Rats were randomly divided into two groups of 24 animals each. Each group received either freshly prepared control free Pt solution in DMSO (10%) in saline solution or formulation of F-Pt/M at a dose equivalent to 3 mg/kg of drug intravenously through lateral tail vein. From each group, three rats were sacrificed at intervals of 5, 15, 30, 45, 60, 90, 120 and180 min post dose. At each time point, blood sample was withdrawn and centrifuged at 3,500 rpm at 4 °C for 10 min. At the same time, the brain sample was harvested, weighed, and homogenized in PBS after cardiac perfusion with 0.9% normal saline solution. Samples were stored at −80 °C until analysis.
Pt from both brain and plasma samples was extracted by liquid-liquid extraction method. Briefly, 20 µL of internal standard working solution (resveratrol, 250 ng/ml) was added to 200 µL aliquot of plasma or brain sample. After 30 seconds of vortexing, 1 mL of extraction solvent, methyl tertiary butyl ether (MTBE) was added. Afterwards, the sample was mixed for 1 min plus centrifugation at 1,000 rpm for 5 min, the supernatant organic layer was carefully transferred and dried using nitrogen gas with gentle heat at 40 °C. The residue was reconstituted with 400 µL of mobile phase and centrifuged at 12,000 rpm for 10 min. The supernatant was transferred to an auto-sampler vial and 10 µL was then injected into the LC-MS/MS system for analysis. An LC-MS/MS analysis method reported by Ferrer (Ferrer et al., [2005]) was employed for the determination of Pt concentration.
Pharmacokinetic parameters, such as Cmax (maximum drug concentration), Tmax (the time to Cmax) and AUC0-t (area under plasma concentration-time curve), were calculated by DAS 2.0 (Drug and Statistics ver 2.0, China). To examine the blood-brain barrier penetration (P) of Pt, the following formula was employed (Yang et al., [2021]): (5) P=AUCbrain/AUCplasma
For brain targeting evaluation, DTI (drug targeting index) was determined using the following equation (Katekar et al., [2020]): (6) DTI = (AUCbrain/AUCplasma)test/(AUCbrain/AUCplasma)control

Details of data set [5]: method as in Liu et al., 2020. The settings on record: crude Pt; ref Liu et al., 2020; cited from earlier work.

By IC50 is commonly meant the concentration needed to halve the response being measured. Read a low IC50 as higher potency. The term Cmax denotes the maximum level reached in the sampled fluid or tissue. One may read the Tmax as the time from dosing to the highest level. As a reminder, the half-life is the time needed for the level to fall by half in the phase considered. Low readings indicate fast loss, high ones slow loss. Regarding `COc1cc(/C=C/c2ccc(O)cc2)cc(OC)c1` [free Pt, 3,5-dimethoxy-4′-hydroxy-trans-stilbene], in data set [1], the “time over which the drug was released” value is on record as no more than 5 h. The IC50 in data set [2] is 24.4 µM. The “HR (hemolysis ratio)” value in data set [3] (high concentration of 0.5 mg/mL) worked out at 11.23%. Moreover, the “HR (hemolysis ratio)” value in data set [3] (low concentration of 0.17 mg/mL) was found to be 6.46%. In addition, the “HR (hemolysis ratio)” value in data set [3] (medium concentration of 0.33 mg/mL) was 10.39%. In data set [4] (brain), the AUC0-t turned out to be 4369.66 ± 289.88 µg·min/L, the highest level (Cmax) was 78.1 ± 13.9 ng/mL, the Tmax is 35 min and the half-life is 22.4 ± 2.84 min. Further, in data set [4] (plasma), the Cmax is 221 ± 21.6 ng/mL, the Tmax is 5 min, the half-life came out at 114 ± 29.2 min and the AUC0-t amounted to 10107.80 ± 976.65 µg·min/L. Further, the solubility in water result in data set [5] is recorded as “about 21 µg/mL”.
